Here are results for one molecule from publication PMC7774954, “Interactomic affinity profiling by holdup assay: Acetylation and distal residues impact the PDZome-binding specificity of PTEN phosphatase” (PLoS ONE, 2020).

One assay deals with INADL-9. Briefly: Holdup assay, INADL-9. The format is binding, human.
A further assay concerns MAGI3-3. Description: Holdup assay, MAGI3-3. The assay is classed as binding, human.
The next assay deals with GRIP1-2. Briefly: Holdup assay, GRIP1-2. The assay is classed as binding, human.
In the next assay the test system is GRIP2-1. Briefly: Holdup assay, GRIP2-1. The format is binding, human.
The test system of the next assay is DLG5-1. Description: Holdup assay, DLG5-1. The assay is classed as binding, human.
For a further assay, the system named is LNX2-1. Description: Holdup assay, LNX2-1. The assay is classed as binding, human.
In another assay the test system is GRIP2-3. Briefly: Holdup assay, GRIP2-3. The assay is classed as binding, human.
The test system of the next assay is GRIP1-1. Description: Holdup assay, GRIP1-1. The format is binding, human.
The next assay has as its target INADL-7 (Homo sapiens, UniProt Q8NI35). Briefly: Holdup assay, INADL-7. The assay is classed as binding.
Another assay addresses T1, GIPC2-1 (Homo sapiens, UniProt Q8TF65).
T1 sequence (Q8TF65 1-315): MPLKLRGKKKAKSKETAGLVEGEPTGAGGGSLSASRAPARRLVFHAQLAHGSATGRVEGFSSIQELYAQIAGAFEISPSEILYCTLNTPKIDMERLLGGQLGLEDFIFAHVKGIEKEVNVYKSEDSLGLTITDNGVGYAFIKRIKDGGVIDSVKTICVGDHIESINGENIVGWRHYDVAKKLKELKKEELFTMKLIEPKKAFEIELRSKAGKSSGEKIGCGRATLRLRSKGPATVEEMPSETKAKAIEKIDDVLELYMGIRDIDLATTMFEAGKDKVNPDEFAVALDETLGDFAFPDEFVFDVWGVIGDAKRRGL
Briefly: Holdup assay, GIPC2-1. The format is binding.

A further assay has as its system DVL1-1. Description: Holdup assay, DVL1-1. The format is binding, human.
The subject of the next assay is DFNB31-2. Description: Holdup assay, DFNB31-2. The format is binding, human.
The subject of another assay is DVL3-1. Briefly: Holdup assay, DVL3-1. The assay is classed as binding, human.
The subject of a further assay is IL16-3. Briefly: Holdup assay, IL16-3. The format is binding, human.
A further assay relates to APBA2-1. Description: Holdup assay, APBA2-1. The assay is classed as binding, human.
For the next assay, the system named is CASK-1. Description: Holdup assay, CASK-1. The format is binding, human.
Another assay concerns GRIP2-7. Briefly: Holdup assay, GRIP2-7. The format is binding, human.
The next assay relates to INADL-5. Description: Holdup assay, INADL-5. The format is binding, human.

*1 amine or outer side, *2 acyl side, *3 side chain or, on linkers, in order; H or OH if unused. Where a SMILES comes first, the peptide text is derived from it. The star is where a group is joined. X1 = O=C(CCCC[C@@H]1SC[C@@H]2NC(=O)N[C@@H]21)NCCCOCCOCCOCCCN*; Suc = O=C(CCC(=O)[*:2])[*:1]

Chain of INADL-7 (Q8NI35 whole entry): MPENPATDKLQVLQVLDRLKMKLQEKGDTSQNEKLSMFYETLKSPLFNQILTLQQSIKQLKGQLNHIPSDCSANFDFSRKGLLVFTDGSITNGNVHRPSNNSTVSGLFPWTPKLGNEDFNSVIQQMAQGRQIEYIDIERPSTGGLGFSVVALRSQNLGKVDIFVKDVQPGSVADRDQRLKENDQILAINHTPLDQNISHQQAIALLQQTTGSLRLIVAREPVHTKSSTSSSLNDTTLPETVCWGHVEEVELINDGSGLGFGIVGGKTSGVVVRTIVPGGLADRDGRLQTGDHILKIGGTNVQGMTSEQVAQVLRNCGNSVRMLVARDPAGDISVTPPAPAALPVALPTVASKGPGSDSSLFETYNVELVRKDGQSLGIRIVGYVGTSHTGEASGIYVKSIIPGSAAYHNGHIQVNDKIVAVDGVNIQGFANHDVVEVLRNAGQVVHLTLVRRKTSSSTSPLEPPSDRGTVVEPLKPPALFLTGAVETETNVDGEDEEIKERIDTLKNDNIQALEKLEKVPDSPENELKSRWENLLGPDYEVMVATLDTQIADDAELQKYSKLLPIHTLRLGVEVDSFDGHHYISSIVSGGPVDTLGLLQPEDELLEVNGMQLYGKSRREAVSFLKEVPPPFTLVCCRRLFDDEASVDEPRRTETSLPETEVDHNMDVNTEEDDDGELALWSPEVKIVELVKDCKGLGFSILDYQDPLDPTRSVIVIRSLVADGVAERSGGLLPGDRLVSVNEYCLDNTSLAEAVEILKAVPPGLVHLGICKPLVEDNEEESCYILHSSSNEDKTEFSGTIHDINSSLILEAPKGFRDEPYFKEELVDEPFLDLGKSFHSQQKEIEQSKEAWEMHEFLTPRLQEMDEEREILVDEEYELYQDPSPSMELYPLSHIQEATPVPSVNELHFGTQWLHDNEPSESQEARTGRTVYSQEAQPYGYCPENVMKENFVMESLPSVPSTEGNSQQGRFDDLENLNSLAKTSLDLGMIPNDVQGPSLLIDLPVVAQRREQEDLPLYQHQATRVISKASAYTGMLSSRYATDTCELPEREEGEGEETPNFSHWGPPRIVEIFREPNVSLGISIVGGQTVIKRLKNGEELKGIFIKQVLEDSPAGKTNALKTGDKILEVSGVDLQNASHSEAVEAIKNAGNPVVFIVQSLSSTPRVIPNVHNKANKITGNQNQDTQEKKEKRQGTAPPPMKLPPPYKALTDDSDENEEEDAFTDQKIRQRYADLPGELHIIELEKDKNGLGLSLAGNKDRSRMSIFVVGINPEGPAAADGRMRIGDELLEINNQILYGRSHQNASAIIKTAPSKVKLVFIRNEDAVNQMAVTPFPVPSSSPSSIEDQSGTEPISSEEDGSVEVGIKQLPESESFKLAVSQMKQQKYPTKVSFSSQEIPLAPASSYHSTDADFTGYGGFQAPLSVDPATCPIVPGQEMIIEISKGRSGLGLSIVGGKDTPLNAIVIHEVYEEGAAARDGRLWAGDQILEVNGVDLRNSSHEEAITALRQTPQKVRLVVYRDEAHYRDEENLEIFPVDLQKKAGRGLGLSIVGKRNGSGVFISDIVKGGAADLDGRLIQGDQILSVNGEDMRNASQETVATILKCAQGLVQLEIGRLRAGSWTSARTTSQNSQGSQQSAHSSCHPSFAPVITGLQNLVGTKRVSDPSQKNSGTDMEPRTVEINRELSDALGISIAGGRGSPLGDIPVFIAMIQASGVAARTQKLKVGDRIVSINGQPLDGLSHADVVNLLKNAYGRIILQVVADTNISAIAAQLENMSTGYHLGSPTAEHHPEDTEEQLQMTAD

Consider `CC[C@H](C)[C@H](NC(=O)[C@H](CCC(N)=O)NC(=O)[C@@H](NC(=O)[C@H](Cc1c[nH]cn1)NC(=O)[C@H](CCC(N)=O)NC(=O)[C@H](CC(=O)O)NC(=O)[C@H](CCC(=O)O)NC(=O)[C@H](CC(=O)O)NC(=O)[C@H](Cc1ccccc1)NC(=O)[C@@H]1CCCN1C(=O)CCC(=O)NCCCOCCOCCOCCCNC(=O)CCCC[C@@H]1SC[C@@H]2NC(=O)N[C@@H]21)[C@@H](C)O)C(=O)N[C@H](C(=O)N[C@@H](CCCCN)C(=O)N[C@H](C(=O)O)C(C)C)[C@@H](C)O` [PTEN_13] ({X1-Suc}-PFDEDQHTQITKV-OH), for which the BI in the assay with INADL-9 is recorded as -0.062; in the assay on MAGI3-3, -0.03; in the assay on GRIP1-2 it was 0.009; in the assay on GRIP2-1, -0.085; with DLG5-1 it was -0.048; in the assay with LNX2-1 it was -0.046. For the same molecule, the BI in the assay on GRIP2-3 was 0.027; in the assay with GRIP1-1, -0.079; at INADL-7, 0.07; at GIPC2-1, -0.087; in the assay with DVL1-1, -0.013; with DFNB31-2 it was 0.036. The BI in the assay with DVL3-1 is on record as -0.003; with IL16-3 it was -0.001; in the assay on APBA2-1, 0.029; in the assay with CASK-1 it was -0.07; with GRIP2-7, -0.039; in the assay with INADL-5 it was -0.039. The LogKD at INADL-7 is on record as 3.826.
